Results published in patent US7041661B2, “Use of thiazolobenzoheterocycles for treating multiple sclerosis” (Aventis Pharmaceuticals Inc., priority 2002, dated 2006).

Tests used:
[1] = tested on: Experimental Allergic Encephalomyelitis (EAE) of female DA (Dark Agouti) rats; assay: Rat spinal cord homogenate induced EAE in DA rats, daily neurological score; format: in vivo; details: doses of 1, 3 and 10 mg/kg p.o., twice daily for 28 days from one day post-immunization
Method: EAE was induced in female DA (Dark Agouti) rats (8 wks old, from Harlan) by immunization with the 25% w/v rat spinal cord homogenate (r-SCH) in saline emulsified with an equal volume of CFA supplemented with 40 mg/10 ml heated-killed mycobacterium tuberculosis H37Ra (BD Bioscience). Rats were injected s.c. with 0.2 ml of emulsion in the base of tail.
Rats were scored daily before treatment starting from day 5 post-immunization through the entire experiment by a well-known behavioral scale system: Score 0, normal; 0.5, partial limp tail; 1, complete limp tail; 2, abnormal gait; 3, partial hind limb paralysis, and mice unable to walk normally; 3.5, one leg is completely paralyzed, and one leg is partially paralyzed; 4, complete hind limb paralysis; 4.5, Legs are completely paralyzed and Moribund; 5, death due to EAE. Compound A and Compound B (active metabolite of Compound A), two representatives of thiazolobenzoheterocyclic compounds, were examined in DA rat EAE procedure.
Compound A and Compound B were given one-day post-immunization, p.o. route, twice daily for 28 days.

[2] = tested on: Experimental Allergic Encephalomyelitis (EAE) of female SJL mice; assay: PLP 139-151 induced EAE in SJL/J mice, daily neurological score; format: in vivo, mouse
Text: The utility of the thiazobenzohetercyclic compounds of formula I for the treatment of various conditions associated with multiple sclerosis can be assessed by measuring their ability to inhibit effects of experimental allergic encephalomyelitis (EAE) in laboratory animals.
Experimental Autoimmune Encephalomyelitis (EAE) is a T-cell-mediated autoimmune disease of the nervous system that develops in susceptible animals following sensitization with either whole spinal cord homogenate or a myelin component. It is known that EAE reflects or mimics many of the pathophysiological steps in MS, including the role of certain adhesion molecules, the influence of T cells and antibodies reactive to components of the myelin sheath, the participation of metalloproteases in penetrating the blood-brain barrier, and the cytotoxic role of certain cytokines. One of the marketed MS therapies, glatiramer acetate (Copaxone®) was developed preclinically based on its success in treating various models of EAE.
EAE was induced in female SJL/J mice (8 wks old, from Jackson Laboratories) by immunization with the myelin Proteolipid Protein (PLP 139-151) from BACHEM, Bioscience. PLP139-151 was dissolved in H2O:PBS (1:1) solution to a concentration of 7.5 mg/10 ml (for 75 ug PLP per mouse) and emulsified with an equal volume of CFA supplemented with 40 mg/10 ml heated-killed mycobacterium tuberculosis H37Ra (BD Bioscience). Mice were injected s.c. with 0.2 ml of peptide emulsion in the abdominal flank (0.1 ml on each side). On the same day and 72 hr later, mice were injected i.v. with 35 ng and 50 ng of Bordetella Pertussis toxin (List Biological Laboratories ) in saline, respectively.
Compound A, one representative of thiazolobenzoheterocyclic compounds, was examined in the PLP/SJL mouse EAE model.
Study 1: There were five groups, i.e., vehicle (water), Compound A at doses of 5, 10 and 20 mg/kg and dexamethasone (DEX) at a dose of 3 mg/kg. Treatment was begun on day 7 after PLP immunization. Mice were dosed twice per day for 22 days. Results are as follows:
Study 2: There were five groups, i.e., vehicle (water), Compound A at doses of 10, 20 and 30/40 mg/kg and dexamethasone (DEX) at a dose of 3 mg/kg. Treatment was begun on day 7 after PLP immunization. Mice were dosed twice per day for 18 days.

[3] = Study 2, SJL EAE mice, twice per day for 18 days from day 7

| SMILES | EAE incidence [1] | cumulative neurological scores [1] | maximal neurological scores [1] | neurological deficits in the EAE mice (FIG. 1) ([2]; Study 1, doses of 10 and 20 mg/kg p.o., twice per day for 22 days from day 7 after PLP immunization, vs vehicle) | EAE incidence [2, 3] | disease onset [2, 3] | neurological scores in SJL EAE mice ([2]; Study 2, doses of 10 and 20 mg/kg, twice per day for 18 days from day 7 after PLP immunization) |
| --- | --- | --- | --- | --- | --- | --- | --- |
| N=c1sc2cc(C(F)(F)F)cc3c2n1CC[S+]([O-])C3 (racemic) [Compound A, (R,S)-2-imino-9-trifluoromethyl-4,5-dihydro-2H,7H-thiazolo[3,4,5-de][4,1]benzothiazepine-6-oxide] | significantly reduced | significantly reduced | significantly reduced | significantly reduced | reduced | delayed | significant reduced |
| N=c1sc2cc(C(F)(F)F)cc3c2n1CCS(=O)(=O)C3 [Compound B, (R,S)-2-imino-9-trifluoromethyl-4,5-dihydro-2H,7H-thiazolo[3,4,5-de][4,1]benzothiazepine-6,6-dioxide] | significantly reduced | significantly reduced | significantly reduced | – | – | – | – |
